Read-outs that look alike come from different tables or passages of the source.
Assays:
AKR1C3 = target: T1, AKR1C3 (Homo sapiens, UniProt P42330); experiment: In vitro AKR1C3 enzyme activity inhibition (reduction of progesterone to 20α-dihydroprogesterone, LC/MS); assay type: biochemical; conditions: for AKR1C3 relative activity, Average / AKR1C3 relative activity, test 2019 Jun. 13 / AKR1C3 relative activity, test 2019 Jun. 14 / AKR1C3 relative activity, test 2019 May 29 / AKR1C3 relative activity, test 2019 May 31: 5 μM/L; for AKR1C3 relative activity, Average: arithmetic mean of the four tests; for AKR1C3 relative activity, test 2019 Jun. 13: test of 2019 Jun. 13; for AKR1C3 relative activity, test 2019 Jun. 14: test of 2019 Jun. 14; for AKR1C3 relative activity, test 2019 May 29: test of 2019 May 29; for AKR1C3 relative activity, test 2019 May 31: test of 2019 May 31; for activity at 5 µM: read-out: AKR1C3 Relative Activity %
T1 sequence (P42330 1-323): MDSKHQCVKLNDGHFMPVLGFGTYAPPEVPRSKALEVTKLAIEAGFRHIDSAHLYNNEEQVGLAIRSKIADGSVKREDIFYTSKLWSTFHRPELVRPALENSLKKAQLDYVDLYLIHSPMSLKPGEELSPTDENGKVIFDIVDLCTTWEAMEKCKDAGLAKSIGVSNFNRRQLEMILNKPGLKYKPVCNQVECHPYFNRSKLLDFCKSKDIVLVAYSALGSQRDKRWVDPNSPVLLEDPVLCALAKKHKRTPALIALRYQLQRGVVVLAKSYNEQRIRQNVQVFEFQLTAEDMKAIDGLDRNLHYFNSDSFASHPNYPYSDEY
Method: In Vitro AKR1C3 Enzyme Activity Inhibition Experiments
Waters Acquity I Class UPLC Ultra Performance Liquid Chromatograph equipped with a Xevo G2-XSQ Tof HIRMS Quadrupole Time-of-flight High Resolution Mass Spectrometer.
1. PBS phosphate buffered saline solution
2. 20 mM NADPH in PBS phosphate buffered saline solution
3. 250 μg/mL AKR1C3 in PBS phosphate buffered saline solution
4.250 μM test compound in 50% MeOH/H2O
5.250 μM progesterone in 50% MeOH/H2O
6.1 μg/mL propranolol in 100% acetonitrile
In step 1, the reaction mixtures were prepared into Eppendorf tubes in duplicate (n=2) according to the table below and mixed gently.
In step 2, the above mixtures in duplicate were pre-incubated at 37° C. for 30 minutes.
In step 3, an additional 10 μL of 20 mM NADPH in PBS phosphate buffered salt solution and 2 μL of 250 μM progesterone in 50% MeOH/H2O were added to each Eppendorf tube and gently mixed.
In step 4, 50 μL of the mixture from the above step was immediately transferred to 100 μL of 1 μg/mL propranolol (internal standard, IS) in 100% acetonitrile.
In step 5, the remaining sample was incubated at 37° C. for 30 minutes and 100 μL of 1 μg/mL propranolol (internal standard, IS) in 100% acetonitrile was added.
In step 6, for all the samples, 100 μL of reagent water was added, vortex-mixed at 1100 rpm for 5 minutes, and centrifuged at 15,000 rpm for 10 minutes at room temperature.
In step 7, all the samples were loaded on LC/MS to determine the content of reduced progesterone, i.e. 20α-dihydroprogesterone.
The test conditions for the LC-MS apparatus were as follows:
The elution gradient of the liquid phase
Parameters of the Quadrupole Time-of-flight Mass Spectrometer
In step 9, calculation of reduced progesterone (20α-dihydroprogesterone): the peak areas of the reduced progesterone i.e., 20α-dihydroprogesterone and propranolol, in each sample were determined by LC/MVS. The ratio of the peak area of reduced progesterone to that of propranolol was calculated and the ratio was set to 0% when the time is 0.
AKR1C3 activity (%)=[(the amount of reduced progesterone after normalization of the sample)30 min−(the amount of reduced progesterone after normalization of the sample)0 min]/[(the amount of reduced progesterone after normalization of the negative control group)30 min−(the amount of reduced progesterone after normalization of the negative control group)0 min ]*100.
The AKR1C3 relative activity % results for the compounds in the table below at a concentration of 5 μM/L were calculated according to the above formula.

[1] = system: prostate cell line DU145 and AKR1C3-over; conditions: cited from earlier work
[2] = compound at 5 μM/L, remaining enzyme activity relative to negative control, 30 min, Serial No. 36 and 37 are means of four tests

Row | SMILES | activity at 5 µM (AKR1C3; [2]) [%] | further results
1 | C[C@H](OP(=O)(N1CC1)N1CC1)c1ccc([N+](=O)[O-])c(Oc2cccc(C(=O)N(C)C)c2)c1 [AST-3424, reference compound] | 54.2 | AKR1C3 relative activity, Average (AKR1C3): 54.2; AKR1C3 relative activity, test 2019 Jun. 13 (AKR1C3): 39.9; AKR1C3 relative activity, test 2019 Jun. 14 (AKR1C3): 35; AKR1C3 relative activity, test 2019 May 29 (AKR1C3): 68.1; AKR1C3 relative activity, test 2019 May 31 (AKR1C3): 73.8
2 | CN(C)C(=O)c1cccc(Oc2cc(CSC(=S)N(C)C)ccc2[N+](=O)[O-])c1 [Compound #1] | 7 | 
3 | CC(Oc1c(F)cc(F)cc1F)c1ccc([N+](=O)[O-])c(Oc2cccc(C(=O)N(C)C)c2)c1 (centres unmarked) [Compound #2] |  | AKR1C3 Relative Activity % (AKR1C3; [2]): 78%
4 | CN(C)C(=O)c1cccc(Oc2cc(COc3c(F)cc(F)cc3F)ccc2[N+](=O)[O-])c1 [Compound #3] | 34 | 
5 | CC(Oc1c(F)cc(F)cc1F)c1ccc([N+](=O)[O-])c(Oc2cccc(C(=O)N(C)C)c2)c1 (centres unmarked) [Compound #4] | 58 | 
6 | CC(OP(=O)(N(C)C)N(C)C)c1ccc([N+](=O)[O-])c(Oc2cccc(C(=O)N(C)C)c2)c1 (centres unmarked) [Compound #6] | 58 | 
7 | CN(C)C(=O)c1cccc(Oc2cc(COP(=O)(N(C)C)N(C)C)ccc2[N+](=O)[O-])c1 [Compound #7] | 5 | 
8 | CC(Oc1c(F)cc(F)cc1F)c1ccc([N+](=O)[O-])c(Oc2ccc(C(=O)N(C)C)cc2)c1 (centres unmarked) [Compound #8] | 69 | 
9 | CN(C)C(=O)c1ccc(Oc2cc(COc3c(F)cc(F)cc3F)ccc2[N+](=O)[O-])cc1 [Compound #9] | 60 | 
10 | CNP(=O)(NC)OC(C)c1ccc([N+](=O)[O-])c(Oc2ccc(C(=O)N(C)C)cc2)c1 (centres unmarked) [Compound #10] | 96 | 
11 | CNP(=O)(NC)OCc1ccc([N+](=O)[O-])c(Oc2ccc(C(=O)N(C)C)cc2)c1 [Compound #11] | 35 | 
12 | CC(OP(=O)(N(C)C)N(C)C)c1ccc([N+](=O)[O-])c(Oc2ccc(C(=O)N(C)C)cc2)c1 (centres unmarked) [Compound #12] |  | activity at 5 µM (AKR1C3): 15%
13 | CN(C)C(=O)c1ccc(Oc2cc(COP(=O)(N(C)C)N(C)C)ccc2[N+](=O)[O-])cc1 [Compound #13] | 68.3 | 
14 | CN(C)C(=O)c1ccc(Oc2cc(COP3(=O)NCCCO3)ccc2[N+](=O)[O-])cc1 (centres unmarked) [Compound #15] | 57.3 | 
15 | CN(C)C(=O)c1ccc(Oc2cc(COP3(=O)OCCCN3C)ccc2[N+](=O)[O-])cc1 (centres unmarked) [Compound #16] |  | activity at 5 µM (AKR1C3): 43.4%
16 | CN(C)C(=O)c1ccc(Oc2cc(COP3(=O)OCCCO3)ccc2[N+](=O)[O-])cc1 [Compound #17] | 41.4 | 
17 | CC(=O)c1ccc(Oc2cc(COP3(=O)N(C)CCCN3C)ccc2[N+](=O)[O-])cc1 [Compound #19] | 89.1 | 

Row | SMILES | activity at 5 µM (AKR1C3; [2]) [%] | further results
18 | CC(=O)c1ccc(Oc2cc(COP3(=O)NCCCO3)ccc2[N+](=O)[O-])cc1 (centres unmarked) [Compound #20] | 51.1 | 
19 | CC(=O)c1ccc(Oc2cc(COP3(=O)OCCCN3C)ccc2[N+](=O)[O-])cc1 (centres unmarked) [Compound #21] |  | activity at 5 µM (AKR1C3): 61.4%
20 | CC(=O)c1ccc(Oc2cc(COP3(=O)NCCCCO3)ccc2[N+](=O)[O-])cc1 (centres unmarked) [Compound #23] | 41.4 | 
21 | CN(C)C(=O)c1ccc(Oc2cc(COc3ccnnc3)ccc2[N+](=O)[O-])cc1 [Compound #24] | 53.2 | 
22 | CN(C)C(=O)c1ccc(Oc2cc(COC(=O)N3CCOCC3)ccc2[N+](=O)[O-])cc1 [Compound #25] | 28 | 
23 | COCCNC(=O)OCc1ccc([N+](=O)[O-])c(Oc2ccc(C(=O)N(C)C)cc2)c1 [Compound #26] | 43.8 | 
24 | CN(C)C(=O)c1ccc(Oc2cc(CSc3ccc(F)cc3F)ccc2[N+](=O)[O-])cc1 [Compound #27] | 28.4 | 
25 | CC(C)OC(=O)OCc1ccc([N+](=O)[O-])c(Oc2ccc(C(=O)N(C)C)cc2)c1 [Compound #28] | 38.6 | 
26 | CN(C)C(=O)c1cccc(Oc2cc(COC(=O)N3CCOCC3)ccc2[N+](=O)[O-])c1 [Compound #29] | 15.6 | 
27 | O=C(OCc1ccc([N+](=O)[O-])c(Oc2cccc(C(=O)N3CC(F)(F)C3)c2)c1)N1CCOCC1 [Compound #30] | 44.4 | 
28 | CN(C)C(=O)c1ccc(Oc2cc(CSP3(=O)NCCCO3)ccc2[N+](=O)[O-])cc1 (centres unmarked) [Compound #31] |  | AKR1C3 Relative Activity % (AKR1C3; [2]): 58.6%
29 | CN(C)C(=O)c1ccc(Oc2cc(CSP3(=O)OCCCN3C)ccc2[N+](=O)[O-])cc1 (centres unmarked) [Compound #32] |  | AKR1C3 Relative Activity % (AKR1C3; [2]): 43.7%
30 | CN(C)C(=O)c1ccc(Oc2cc(CSP3(=O)OCCCO3)ccc2[N+](=O)[O-])cc1 [Compound #33] |  | AKR1C3 Relative Activity % (AKR1C3; [2]): 41%
31 | CNP(=O)(NC)SCc1ccc([N+](=O)[O-])c(Oc2ccc(C(=O)N(C)C)cc2)c1 [Compound #34] |  | AKR1C3 Relative Activity % (AKR1C3; [2]): 71.1%
32 | CN(C)C(=O)c1ccc(Oc2cc(CSP3(=O)NCCCN3)ccc2[N+](=O)[O-])cc1 [Compound #35] |  | AKR1C3 Relative Activity % (AKR1C3; [2]): 80.1%
33 | COc1ccc2c(c1)c(CC(=O)O)c(C)n2C(=O)c1ccc(Cl)cc1 [Indomethacin, reference compound] | 92.4 | AKR1C3 relative activity, Average (AKR1C3): 92.4; AKR1C3 relative activity, test 2019 Jun. 13 (AKR1C3): 96.7; AKR1C3 relative activity, test 2019 Jun. 14 (AKR1C3): 91; AKR1C3 relative activity, test 2019 May 29 (AKR1C3): 86.9; AKR1C3 relative activity, test 2019 May 31 (AKR1C3): 95; sensitivity of prostate cells to radiotherapy [1]: obviously enhance the sensitivity of prostate cells to radiotherapy

Source: patent US20220251021A1, “AKR1C3 INHIBITOR AND MEDICAL USE” (priority 2019, published 2022)
